# Results as given in patent US8546386B2, “Corrosion and microbial control in hydrocarbonaceous compositions” (Dow Global Technologies LLC, priority 2008, dated 2013).
# Columns and labels:
# Assay type in all cases: cell-based
# [1] = system: Yarrowia tropicalis ATCC#48138; assay: Microbial testing in diesel fuel, plate count
# [2] = system: Hormoconis resinae ATCC#20495; assay: Microbial testing in diesel fuel, plate count
# [3] = system: Pseudomonas aeruginosa ATCC#33988; assay: Microbial testing in diesel fuel, plate count
# [4] = system: Hormoconis resinae ATCC#20495; assay: Microbial testing in biodiesel fuel, plate count; conditions: no biocide
# [5] = system: Pseudomonas aeruginosa ATCC#33988; assay: Microbial testing in biodiesel fuel, plate count; conditions: no biocide
# [6] = amino alcohol 1500 ppm + FS 135 ppm, Day 0
# [7] = amino alcohol 1500 ppm + FS 135 ppm, Wk 1
# [8] = amino alcohol 1500 ppm + FS 135 ppm, Wk 2
# [9] = amino alcohol 1500 ppm + FS 135 ppm, Wk 3
# [10] = amino alcohol 1500 ppm + FS 135 ppm, Wk 4
# [11] = amino alcohol 1500 ppm + FS 1000 ppm, Day 0
# [12] = amino alcohol 1500 ppm + FS 1000 ppm, Wk 1
# [13] = amino alcohol 1500 ppm + FS 1000 ppm, Wk 2
# [14] = amino alcohol 1500 ppm + FS 1000 ppm, Wk 3
# [15] = amino alcohol 1500 ppm + FS 1000 ppm, Wk 4
# [16] = amino alcohol 1500 ppm, no biocide, Day 0
# [17] = amino alcohol 1500 ppm, no biocide, Wk 1
# [18] = amino alcohol 1500 ppm, no biocide, Wk 2
# [19] = amino alcohol 1500 ppm, no biocide, Wk 3
# [20] = amino alcohol 1500 ppm, no biocide, Wk 4
# [21] = amino alcohol 3000 ppm + FS 135 ppm, Day 0
# [22] = amino alcohol 3000 ppm + FS 135 ppm, Wk 1
# [23] = amino alcohol 3000 ppm + FS 135 ppm, Wk 2
# [24] = amino alcohol 3000 ppm + FS 135 ppm, Wk 3
# [25] = amino alcohol 3000 ppm + FS 135 ppm, Wk 4
# [26] = amino alcohol 3000 ppm + FS 1000 ppm, Day 0
# [27] = amino alcohol 3000 ppm + FS 1000 ppm, Wk 1
# [28] = amino alcohol 3000 ppm + FS 1000 ppm, Wk 2
# [29] = amino alcohol 3000 ppm + FS 1000 ppm, Wk 3
# [30] = amino alcohol 3000 ppm + FS 1000 ppm, Wk 4
# [31] = amino alcohol 3000 ppm, no biocide, Day 0
# [32] = amino alcohol 3000 ppm, no biocide, Wk 1
# [33] = amino alcohol 3000 ppm, no biocide, Wk 2
# [34] = amino alcohol 3000 ppm, no biocide, Wk 3
# [35] = amino alcohol 3000 ppm, no biocide, Wk 4
smiles,measurement,setting,value
"CC(C)(N)CO [AMP, 2-amino-2-methyl-1-propanol]",Y. tropicalis organism count,[1]; [6],2.8E5
same,Y. tropicalis organism count,[1]; [7],8.2E4
same,Y. tropicalis organism count,[1]; [8],5.6E4
same,Y. tropicalis organism count,[1]; [9],9.0E3
same,Y. tropicalis organism count,[1]; [10],5.9E3
same,Y. tropicalis organism count,[1]; [11],2.8E5
same,Y. tropicalis organism count,[1]; [12],5.2E2
same,Y. tropicalis organism count,[1]; [13],<10
same,Y. tropicalis organism count,[1]; [14],<10
same,Y. tropicalis organism count,[1]; [15],<10
same,Y. tropicalis organism count,[1]; [16],2.8E5
same,Y. tropicalis organism count,[1]; [17],3.4E5
same,Y. tropicalis organism count,[1]; [18],6.2E5
same,Y. tropicalis organism count,[1]; [19],8.0E6
same,Y. tropicalis organism count,[1]; [20],4.3E6
same,Y. tropicalis organism count,[1]; [21],2.8E5
same,Y. tropicalis organism count,[1]; [22],5.8E4
same,Y. tropicalis organism count,[1]; [23],9.4E3
same,Y. tropicalis organism count,[1]; [24],4.8E3
same,Y. tropicalis organism count,[1]; [25],5.0E3
same,Y. tropicalis organism count,[1]; [26],2.8E5
same,Y. tropicalis organism count,[1]; [27],9.4E2
same,Y. tropicalis organism count,[1]; [28],<10
same,Y. tropicalis organism count,[1]; [29],<10
same,Y. tropicalis organism count,[1]; [30],<10
same,Y. tropicalis organism count,[1]; [31],2.8E5
same,Y. tropicalis organism count,[1]; [32],1.6E5
same,Y. tropicalis organism count,[1]; [33],5.7E5
same,Y. tropicalis organism count,[1]; [34],6.8E5
same,Y. tropicalis organism count,[1]; [35],2.0E6
same,H. resinae organism count,[2]; [6],5.3E5
same,H. resinae organism count,[2]; [7],6.7E4
same,H. resinae organism count,[2]; [8],1.3E4
same,H. resinae organism count,[2]; [9],5.8E3
same,H. resinae organism count,[2]; [10],4.7E3
same,H. resinae organism count,[2]; [11],5.3E5
same,H. resinae organism count,[2]; [12],9.2E2
same,H. resinae organism count,[2]; [13],<10
same,H. resinae organism count,[2]; [14],<10
same,H. resinae organism count,[2]; [15],<10
same,H. resinae organism count,[2]; [16],5.3E5
same,H. resinae organism count,[2]; [17],2.0E5
same,H. resinae organism count,[2]; [18],5.8E5
same,H. resinae organism count,[2]; [19],8.1E5
same,H. resinae organism count,[2]; [20],7.2E5
same,H. resinae organism count,[2]; [21],5.3E5
same,H. resinae organism count,[2]; [22],5.7E4
same,H. resinae organism count,[2]; [23],8.6E3
same,H. resinae organism count,[2]; [24],7.6E3
same,H. resinae organism count,[2]; [25],5.8E3
same,H. resinae organism count,[2]; [26],5.3E5
same,H. resinae organism count,[2]; [27],7.0E3
same,H. resinae organism count,[2]; [28],<10
same,H. resinae organism count,[2]; [29],<10
same,H. resinae organism count,[2]; [30],<10
same,H. resinae organism count,[2]; [31],5.3E5
same,H. resinae organism count,[2]; [32],3.6E5
same,H. resinae organism count,[2]; [33],7.3E5
same,H. resinae organism count,[2]; [34],1.1E6
same,H. resinae organism count,[2]; [35],2.3E6
same,Ps. aeruginosa organism count,[3]; [6],3.7E6
same,Ps. aeruginosa organism count,[3]; [7],4.3E5
same,Ps. aeruginosa organism count,[3]; [8],9.0E4
same,Ps. aeruginosa organism count,[3]; [9],1.4E4
same,Ps. aeruginosa organism count,[3]; [10],8.2E3
same,Ps. aeruginosa organism count,[3]; [11],3.7E6
same,Ps. aeruginosa organism count,[3]; [12],1.4E2
same,Ps. aeruginosa organism count,[3]; [13],<10
same,Ps. aeruginosa organism count,[3]; [14],<10
same,Ps. aeruginosa organism count,[3]; [15],<10
same,Ps. aeruginosa organism count,[3]; [16],3.7E6
same,Ps. aeruginosa organism count,[3]; [17],2.1E6
same,Ps. aeruginosa organism count,[3]; [18],5.0E6
same,Ps. aeruginosa organism count,[3]; [19],1.0E6
same,Ps. aeruginosa organism count,[3]; [20],6.8E6
same,Ps. aeruginosa organism count,[3]; [21],3.7E6
same,Ps. aeruginosa organism count,[3]; [22],7.0E5
same,Ps. aeruginosa organism count,[3]; [23],6.8E4
same,Ps. aeruginosa organism count,[3]; [24],1.6E4
same,Ps. aeruginosa organism count,[3]; [25],1.1E4
same,Ps. aeruginosa organism count,[3]; [26],3.7E6
same,Ps. aeruginosa organism count,[3]; [27],<10
same,Ps. aeruginosa organism count,[3]; [28],<10
same,Ps. aeruginosa organism count,[3]; [29],<10
same,Ps. aeruginosa organism count,[3]; [30],<10
same,Ps. aeruginosa organism count,[3]; [31],3.7E6
same,Ps. aeruginosa organism count,[3]; [32],8.6E5
same,Ps. aeruginosa organism count,[3]; [33],4.0E6
same,Ps. aeruginosa organism count,[3]; [34],7.8E6
same,Ps. aeruginosa organism count,[3]; [35],7.2E6
CCCCCCCC/C=C\CCCCCCCC(=O)O.OCCN(CCO)CCO [TEA/Oleic],Mold (H. resinae) count,"[4]; additive 500 ppm, Week 1",8.20E+04 Mold/ml
same,Mold (H. resinae) count,"[4]; additive 500 ppm, Week 2",3.70E+05 Mold/ml
same,Mold (H. resinae) count,"[4]; additive 500 ppm, Week 3",4.30E+05 Mold/ml
same,Mold (H. resinae) count,"[4]; additive 500 ppm, Week 4",6.20E+05 Mold/ml
same,Mold (H. resinae) count,"[4]; additive 1500 ppm, Week 1",3.70E+02 Mold/ml
same,Mold (H. resinae) count,"[4]; additive 1500 ppm, Week 2",1.30E+04 Mold/ml
same,Mold (H. resinae) count,"[4]; additive 1500 ppm, Week 3",2.00E+04 Mold/ml
same,Mold (H. resinae) count,"[4]; additive 1500 ppm, Week 4",4.70E+03 Mold/ml
same,Bacteria (Ps. aeruginosa) count,"[5]; additive 500 ppm, Week 1",7.30E+04 Bact/ml
same,Bacteria (Ps. aeruginosa) count,"[5]; additive 500 ppm, Week 2",5.00E+05 Bact/ml
same,Bacteria (Ps. aeruginosa) count,"[5]; additive 500 ppm, Week 3",1.20E+06 Bact/ml
same,Bacteria (Ps. aeruginosa) count,"[5]; additive 500 ppm, Week 4",1.10E+06 Bact/ml
same,Bacteria (Ps. aeruginosa) count,"[5]; additive 1500 ppm, Week 1",2.00E+03 Bact/ml
same,Bacteria (Ps. aeruginosa) count,"[5]; additive 1500 ppm, Week 2",9.00E+04 Bact/ml
same,Bacteria (Ps. aeruginosa) count,"[5]; additive 1500 ppm, Week 3",2.20E+05 Bact/ml
same,Bacteria (Ps. aeruginosa) count,"[5]; additive 1500 ppm, Week 4",8.30E+04 Bact/ml
